Converted amounts (≈) assume the structure as drawn. Counter-ions that a name gives are not always drawn. Like-named read-outs stand apart in the source and are kept apart here.
Columns and labels:
[1] = Solubility in organic acid buffers (fumaric, aspartic, glutamic acid)
[2] = pH-dependent solubility in aqueous buffer
[3] = physchem
[4] = cited from earlier work
[5] = physchem; remark: listed apart in the source
[6] = cited from earlier work; remark: listed apart in the source
[7] = pH 6.8, aqueous buffer, solubility

For `O=C1CN=C(c2ccccc2Cl)c2cc([N+](=O)[O-])ccc2N1` [Clonazepam], which solubility ([1]; buffer at pH 2.3, higher concentration of fumaric acid) is on record?
Its solubility is “about 11.6 μg/mL”.

And the solubility ([1]; buffer at pH 6.8, lower concentration of fumaric acid)?
Its solubility is about 6.9 µg/mL (≈ 21.9 µM).

What about the solubility ([1]; pH 2.3, aqueous buffer) of the same molecule?
The solubility was 11.6 µg/mL (≈ 36.7 µM).

And the solubility ([1]; pH 2.8, aqueous buffer)?
Its solubility is 10.3 µg/mL (≈ 32.6 µM).

And the solubility ([1]; pH 3.2, aqueous buffer)?
The solubility was 9.6 µg/mL (≈ 30.4 µM).

And the solubility ([1]; pH 3.7, aqueous buffer)?
The solubility was 9.8 µg/mL (≈ 31 µM).

And the solubility ([1]; pH 5.5, aqueous buffer)?
The solubility was 290 µg/mL (≈ 919 µM).

What about the solubility ([2]; pH 2.2, aqueous buffer) of the same molecule?
The solubility was 11.4 µg/mL (≈ 36.1 µM).

And the solubility ([2]; pH 2.8, aqueous buffer)?
The solubility was 10.2 µg/mL (≈ 32.3 µM).

What about the solubility ([2]; pH 3.2, aqueous buffer) of the same molecule?
The solubility was 9.6 µg/mL (≈ 30.4 µM).

And the solubility ([2]; pH 3.8, aqueous buffer)?
Its solubility is 9.2 µg/mL (≈ 29.1 µM).

What about the solubility ([2]; pH 4.2, aqueous buffer) of the same molecule?
Its solubility is 9.1 µg/mL (≈ 28.8 µM).

What about the solubility ([2]; pH 4.8, aqueous buffer) of the same molecule?
Its solubility is 8.6 µg/mL (≈ 27.2 µM).

What about the solubility ([2]; pH 5.4, aqueous buffer) of the same molecule?
The solubility was 8.4 µg/mL (≈ 26.6 µM).

What about the solubility ([2]; pH 6.2, aqueous buffer) of the same molecule?
Its solubility is 8 µg/mL (≈ 25.3 µM).

And the solubility ([2]; physiological pHs)?
Its solubility is “practically insoluble”.

What does the source list for `COc1cc(C(C)=O)ccc1OCCCN1CCC(c2noc3cc(F)ccc23)CC1` [Iloperidone]?
solubility ([3]; pH 1.2, simulated gastric fluid, Solubility of Iloperidone in Aqueous Buffer): 3900 µg/mL (≈ 9140 µM); solubility ([3]; pH 3.01, aqueous buffer, Solubility of Iloperidone in Aqueous Buffer): 1440 µg/mL (≈ 3370 µM); solubility ([3]; pH 3.06, aqueous buffer, Solubility of Iloperidone in Aqueous Buffer): 917 µg/mL (≈ 2150 µM); solubility ([3]; pH 4.08, aqueous buffer, Solubility of Iloperidone in Aqueous Buffer): 681 µg/mL (≈ 1600 µM); solubility ([3]; pH 4.46, aqueous buffer, Solubility of Iloperidone in Aqueous Buffer): 586 µg/mL (≈ 1370 µM); solubility ([3]; pH 5.09, aqueous buffer, Solubility of Iloperidone in Aqueous Buffer): 341 µg/mL (≈ 800 µM); solubility ([3]; pH 6.11, aqueous buffer, Solubility of Iloperidone in Aqueous Buffer): 117 µg/mL (≈ 274 µM); solubility [3, 7]: ~30 µg/mL (≈ 70.3 µM); solubility ([3]; pH 7.02, aqueous buffer, Solubility of Iloperidone in Aqueous Buffer): 11 µg/mL (≈ 25.8 µM); solubility ([3]; simulated gastric fluid, solubility): ~3000 µg/mL (≈ 7030 µM)

What does the source list for `Cc1nccn1CC1CCc2c(c3ccccc3n2C)C1=O` (stereo not drawn) [Ondansetron HCl, ondansetron hydrochloride]?
solubility ([4]; low pH gastric fluids): freely soluble; solubility ([4]; pH >6): practically insoluble; solubility ([3]; pH 2.2, aqueous buffer, Solubility of Ondansetron HCl in Aqueous Buffer): 23300 µg/mL; solubility ([3]; pH 3.2, aqueous buffer, Solubility of Ondansetron HCl in Aqueous Buffer): 25700 µg/mL; solubility ([3]; pH 4.2, aqueous buffer, Solubility of Ondansetron HCl in Aqueous Buffer): 10900 µg/mL; solubility ([3]; pH 5, aqueous buffer, Solubility of Ondansetron HCl in Aqueous Buffer): 3600 µg/mL; solubility ([3]; pH 5.6, aqueous buffer, Solubility of Ondansetron HCl in Aqueous Buffer): 1700 µg/mL; solubility ([3]; pH 6.2, aqueous buffer, Solubility of Ondansetron HCl in Aqueous Buffer): 400 µg/mL; solubility ([3]; pH 6.8, aqueous buffer, Solubility of Ondansetron HCl in Aqueous Buffer): 36 µg/mL; solubility [3, 7]: < 50 µg/mL; solubility ([3]; pH 7, aqueous buffer, Solubility of Ondansetron HCl in Aqueous Buffer): 25 µg/mL; solubility ([5]; pH 2.01, aqueous buffer): 26900 µg/mL; solubility ([5]; pH 2.14, aqueous buffer): 27000 µg/mL; solubility ([5]; pH 2.4, aqueous buffer): 26100 µg/mL; solubility ([5]; pH 2.75, aqueous buffer): 26200 µg/mL; solubility ([5]; pH 3.49, aqueous buffer): 26000 µg/mL; solubility ([5]; pH 4.05, aqueous buffer): 26100 µg/mL; elimination half-life ([6]; average): approximately 3.8±1 hrs; absorption from the gastrointestinal tract ([6]; in vivo): well absorbed
